Patent US20250163038A1, “CBL-B MODULATORS AND USES THEREOF” (Nimbus Clio, Inc., priority 2021, published 2025)

Columns and labels:
[1] = system: Jurkat (clone E6-1) cells with NFAT luciferase reporter; assay: Jurkat reporter assay (NFAT Luciferase); format: cell-based; conditions: Homo sapiens; Jurkat NFAT luciferase reporter cells, anti-CD3 stimulation, 6 hr; read-out: Jurkat NFAT EC50
[2] = molecular target: Recombinant human Cbl-b (aa 36-427) (Homo sapiens, UniProt Q13191); assay: Cbl-b Biochemical Assay (TR-FRET); conditions: read-out: TR-FRET hCbl-b IC50
Sequence of Recombinant human Cbl-b (aa 36-427) (Q13191 36-427): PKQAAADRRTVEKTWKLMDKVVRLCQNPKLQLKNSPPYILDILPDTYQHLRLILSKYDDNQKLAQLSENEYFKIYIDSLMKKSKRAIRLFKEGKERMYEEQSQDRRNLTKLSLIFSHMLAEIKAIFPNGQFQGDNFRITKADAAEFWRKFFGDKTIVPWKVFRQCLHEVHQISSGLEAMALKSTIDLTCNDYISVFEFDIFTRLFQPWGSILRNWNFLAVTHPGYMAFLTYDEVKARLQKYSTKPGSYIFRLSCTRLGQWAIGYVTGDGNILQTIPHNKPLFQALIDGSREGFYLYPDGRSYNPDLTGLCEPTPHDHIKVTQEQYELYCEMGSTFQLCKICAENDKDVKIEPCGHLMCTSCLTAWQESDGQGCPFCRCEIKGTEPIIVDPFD

[3] = molecular target: T1, Recombinant human c-Cbl (aa 47-435) (Homo sapiens, UniProt P22681); assay: c-Cbl Biochemical Assay (TR-FRET); conditions: hc-Cbl Biochemical Assay (TR-FRET); read-out: TR-FRET hcCbl IC50
T1 sequence (P22681 47-435): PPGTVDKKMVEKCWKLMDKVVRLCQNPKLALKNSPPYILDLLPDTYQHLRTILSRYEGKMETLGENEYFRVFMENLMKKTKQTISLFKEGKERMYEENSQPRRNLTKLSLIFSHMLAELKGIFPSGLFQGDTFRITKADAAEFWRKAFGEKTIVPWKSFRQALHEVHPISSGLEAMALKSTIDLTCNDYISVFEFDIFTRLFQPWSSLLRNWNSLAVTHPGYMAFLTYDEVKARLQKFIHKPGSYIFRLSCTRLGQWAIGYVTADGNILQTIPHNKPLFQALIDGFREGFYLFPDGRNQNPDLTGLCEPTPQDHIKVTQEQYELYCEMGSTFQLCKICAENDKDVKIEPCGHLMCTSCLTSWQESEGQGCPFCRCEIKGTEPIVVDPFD

Row | Compound | EC50 [1] | IC50 [2] | IC50 [3]
1 | CON(C)C(=O)c1cc(C(F)(F)F)c2oc(-c3cccc(-c4ccc(F)cc4-c4nncn4C)c3)nc2c1 [DJ-2, 2-(4′-Fluoro-2′-(4-methyl-4H-1,2,4-triazol-3-yl)-[1,1′-biphenyl]-3-yl)-N-methoxy-N-methyl-7-(trifluoromethyl)benzo[d]oxazole-5-carboxamide] | 1000 to 10000 nM | < 200 nM | 200 to 1000 nM
2 | C[C@H]1CCCN(Cc2cc(C(F)(F)F)c3oc(-c4cccc(-c5ccc(C#N)cc5-c5nncn5C)c4)nc3c2)C1 [AQ-6, (S)-2-(4-Methyl-4H-1,2,4-triazol-3-yl)-3′-(5-((3-methylpiperidin-1-yl)methyl)-7-(trifluoromethyl)benzo[d]oxazol-2-yl)-[1,1′-biphenyl]-4-carbonitrile] | 200 to 1000 nM | < 200 nM | 1000 to 10000 nM
3 | Cn1cnnc1-c1cc(F)ccc1-c1cc(-c2nc3cc(C4(N)CC4)cc(F)c3o2)nc(C2CC2)c1 [AGN-3, 1-(2-{6-Cyclopropyl-4-[4-fluoro-2-(4-methyl-1,2,4-triazol-3-yl)phenyl]pyridin-2-yl}-7-fluoro-1,3-benzoxazol-5-yl) cyclopropan-1-amine] | 1000 to 10000 nM | < 200 nM | 200 to 1000 nM
4 | COc1cc(CN[C@@H]2CCC[C@@H]2OC)cc2nc(-c3cccc(-c4ccc(F)cc4-c4nncn4C)c3)oc12 [FQ-1, (1R,2S)—N-((2-(4′-Fluoro-2′-(4-methyl-4H-1,2,4-triazol-3-yl)-[1,1′-biphenyl]-3-yl)-7-methoxybenzo[d]oxazol-5-yl)methyl)-2-methoxycyclopentan-1-amine] | 1000 to 10000 nM | 200 to 1000 nM | 200 to 1000 nM
5 | Cn1cnnc1-c1cc(F)ccc1-c1cccc(-c2nc3cc(CN[C@@H]4CCC[C@H]4O)cc(C(F)(F)F)c3[nH]2)c1 [BK-2, (1R,2R)-2-(((2-(4′-Fluoro-2′-(4-methyl-4H-1,2,4-triazol-3-yl)-[1,1′-biphenyl]-3-yl)-7-(trifluoromethyl)-1H-benzo[d]imidazol-5-yl)methyl)amino)cyclopentan-1-ol] | 1000 to 10000 nM | < 200 nM | 1000 to 10000 nM
6 | COCCNCc1cc(C(F)(F)F)c2oc(-c3cc(-c4ccc(F)cc4-c4nncn4C)cc(C4CC4)n3)nc2c1 [ADS-1, N-((2-(6-Cyclopropyl-4-(4-fluoro-2-(4-methyl-4H-1,2,4-triazol-3-yl)phenyl)pyridin-2-yl)-7-(trifluoromethyl)benzo[d]oxazol-5-yl)methyl)-2-methoxyethan-1-amine] | < 200 nM | < 200 nM | < 200 nM
7 | COCCCNCc1cc(OC)c2oc(-c3cccc(-c4ccc(F)cc4-c4nncn4C)c3)nc2c1 [FY-1, N-((2-(4′-Fluoro-2′-(4-methyl-4H-1,2,4-triazol-3-yl)-[1,1′-biphenyl]-3-yl)-7-methoxybenzo[d]oxazol-5-yl)methyl)-3-methoxypropan-1-amine] | 1000 to 10000 nM | < 200 nM | 200 to 1000 nM
8 | COc1cc(CNCCC2CCC2)cc2nc(-c3cccc(-c4ccc(F)cc4-c4nncn4C)c3)oc12 [GG-2, 2-Cyclobutyl-N-((2-(4′-fluoro-2′-(4-methyl-4H-1,2,4-triazol-3-yl)-[1,1′-biphenyl]-3-yl)-7-methoxybenzo[d]oxazol-5-yl)methyl)ethan-1-amine] | 200 to 1000 nM | < 200 nM | < 200 nM
9 | Cn1cnnc1-c1cc(F)ccc1-c1cccc(-c2nc3cc(CO)cc(Br)c3o2)c1 [EQ-4, (7-Bromo-2-(4′-fluoro-2′-(4-methyl-4H-1,2,4-triazol-3-yl)-[1,1′-biphenyl]-3-yl)benzo[d]oxazol-5-yl)methanol] | 1000 to 10000 nM | 200 to 1000 nM | 200 to 1000 nM
10 | Cn1cnnc1-c1cc(F)ccc1-c1cccc(-c2nc3cc(CNC[C@H](O)C(F)(F)F)cc(C(F)(F)F)c3o2)c1 [DM-2, (S)-1,1,1-Trifluoro-3-(((2-(4′-fluoro-2′-(4-methyl-4H-1,2,4-triazol-3-yl)-[1,1′-biphenyl]-3-yl)-7-(trifluoromethyl)benzo[d]oxazol-5-yl)methyl)amino)propan-2-ol] | < 200 nM | < 200 nM | < 200 nM
11 | CC(C)CC1(CNCc2cc(C(F)(F)F)c3oc(-c4cccc(-c5ccc(F)cc5-c5nncn5C)c4)nc3c2)CCC1 [HQ-2, 1-(2-(4′-Fluoro-2′-(4-methyl-4H-1,2,4-triazol-3-yl)-[1,1′-biphenyl]-3-yl)-7-(trifluoromethyl)benzo[d]oxazol-5-yl)-N-((1-isobutylcyclobutyl)methyl)methanamine] | 200 to 1000 nM | < 200 nM | < 200 nM
12 | Cn1cnnc1-c1cc(F)ccc1-c1cccc(-c2nc3cc(CNCC4(O)CC4)cc(C(F)(F)F)c3o2)c1 [AH-2, 1-((((2-(4′-Fluoro-2′-(4-methyl-4H-1,2,4-triazol-3-yl)-[1,1′-biphenyl]-3-yl)-7-(trifluoromethyl)benzo[d]oxazol-5-yl)methyl)amino)methyl)cyclopropan-1-ol] | 200 to 1000 nM | < 200 nM | 1000 to 10000 nM
13 | Cn1cnnc1-c1cc(F)ccc1-c1cccc(-c2nc3cc(CN[C@@H]4CCC[C@]4(C)O)cc(C(F)(F)F)c3o2)c1 [DP-6, (1S,2R)-2-(((2-(4′-Fluoro-2′-(4-methyl-4H-1,2,4-triazol-3-yl)-[1,1′-biphenyl]-3-yl)-7-(trifluoromethyl)benzo[d]oxazol-5-yl)methyl)amino)-1-methylcyclopentan-1-ol] | < 200 nM | < 200 nM | < 200 nM
14 | Cn1cnnc1-c1cc(F)ccc1-c1cc(-c2nc3cc(CNCC4CCC4)cc(C(F)(F)F)c3o2)cc(C2CC2)c1 [JU-1, 1-Cyclobutyl-N-((2-(5-cyclopropyl-4′-fluoro-2′-(4-methyl-4H-1,2,4-triazol-3-yl)-[1,1′-biphenyl]-3-yl)-7-(trifluoromethyl)benzo[d]oxazol-5-yl)methyl)methanamine] | < 200 nM | < 200 nM | < 200 nM
15 | COc1cc(CN[C@@H]2CCC[C@@H]2O)cn2nc(-c3cccc(-c4ccc(F)cc4-c4nncn4C)c3)nc12 [IH-9, (1S,2R)-2-(((2-(4′-Fluoro-2′-(4-methyl-4H-1,2,4-triazol-3-yl)-[1,1′-biphenyl]-3-yl)-8-methoxy-[1,2,4]triazolo[1,5-a]pyridin-6-yl)methyl)amino)cyclopentan-1-ol] | 200 to 1000 nM | < 200 nM | < 200 nM

Now from value to compound:

Row | EC50 [1] | IC50 [2] | IC50 [3] | Compound
16 | < 200 nM | < 200 nM | < 200 nM | Cc1cc(CNCC(C)(C)O)cc2nc(-c3cccc(-c4ccc(F)cc4-c4nncn4C)c3)oc12 [IK-1, 1-(((2-(4′-Fluoro-2′-(4-methyl-4H-1,2,4-triazol-3-yl)-[1,1′-biphenyl]-3-yl)-7-methylbenzo[d]oxazol-5-yl)methyl)amino)-2-methylpropan-2-ol]
17 | < 200 nM | < 200 nM | < 200 nM | Cn1cnnc1-c1cc(F)ccc1-c1cc(-c2nc3cc(CNCC4(O)CCCC4)ccc3o2)nc(C2CC2)c1 [AFE-1, 1-({[(2-{6-Cyclopropyl-4-[4-fluoro-2-(4-methyl-1,2,4-triazol-3-yl)phenyl]pyridin-2-yl}-1,3-benzoxazol-5-yl)methyl]amino}methyl)cyclopentan-1-ol]
18 | < 200 nM | < 200 nM | < 200 nM | CN(Cc1cc(Cl)c2oc(-c3cccc(-c4ccc(F)cc4-c4nncn4C)c3)nc2c1)[C@@H]1CCC[C@@H]1O [HS-3, (1S,2R)-2-(((7-Chloro-2-(4′-fluoro-2′-(4-methyl-4H-1,2,4-triazol-3-yl)-[1,1′-biphenyl]-3-yl)benzo[d]oxazol-5-yl)methyl)(methyl)amino)cyclopentan-1-ol]
19 | < 200 nM | < 200 nM | < 200 nM | Cn1cnnc1-c1cc(F)ccc1-c1cccc(-c2nc3cc(CNCC4(O)CC(F)(F)C4)cc(C(F)(F)F)c3o2)c1 [CQ-1, 3,3-Difluoro-1-((((2-(4′-fluoro-2′-(4-methyl-4H-1,2,4-triazol-3-yl)-[1,1′-biphenyl]-3-yl)-7-(trifluoromethyl)benzo[d]oxazol-5-yl)methyl)amino)methyl)cyclobutan-1-ol]
20 | < 200 nM | < 200 nM | < 200 nM | Cn1cnnc1-c1cc(F)ccc1-c1cccc(-c2nc3cc(CN[C@@H]4CCC[C@@H]4O)cc(Br)c3o2)c1 [ER-2, (1S,2R)-2-(((7-Bromo-2-(4′-fluoro-2′-(4-methyl-4H-1,2,4-triazol-3-yl)-[1,1′-biphenyl]-3-yl)benzo[d]oxazol-5-yl)methyl)amino)cyclopentan-1-ol]
21 | < 200 nM | < 200 nM | < 200 nM | [2H]C([2H])(NCC1(O)CCC1)c1cc(C(F)(F)F)c2oc(-c3cccc(-c4ccc(F)cc4-c4nncn4C)c3)nc2c1 [HB-1, 1-((((2-(4′-Fluoro-2′-(4-methyl-4H-1,2,4-triazol-3-yl)-[1,1′-biphenyl]-3-yl)-7-(trifluoromethyl)benzo[d]oxazol-5-yl)methyl-d2)amino)methyl)cyclobutan-1-ol]
22 | < 200 nM | < 200 nM | < 200 nM | Cn1cnnc1-c1cc(Cl)ccc1-c1cccc(-c2nc3cc(CN[C@@H]4CCC[C@@H]4O)ccc3o2)c1 [ADL-2, (1S,2R)-2-[({2-[4′-Chloro-2′-(4-methyl-1,2,4-triazol-3-yl)-[1,1′-biphenyl]-3-yl]-1,3-benzoxazol-5-yl}methyl)amino]cyclopentan-1-ol]
